We go through 19 molecules from ChEMBL document CHEMBL1136200, “Potent and selective inhibitors of platelet-derived growth factor receptor phosphorylation. Part 4: structure-activity relationships for substituents on the quinazoline moiety of 4-[4-(N-substituted(thio)carbamoyl)-1-piperazinyl]-6,7-dimethoxyquinazoline derivatives” (Bioorg Med Chem Lett, 2003).

Molecules are shown by their SMILES.

The target of the experiment is Platelet-derived growth factor receptor beta (Homo sapiens, UniProt P09619). Briefly: Inhibitory concentration against platelet-derived growth factor receptor beta phosphorylation in CHO cells. Type of experiment: functional, cell-based, Cricetulus griseus.
Chain of Platelet-derived growth factor receptor beta (P09619 whole entry): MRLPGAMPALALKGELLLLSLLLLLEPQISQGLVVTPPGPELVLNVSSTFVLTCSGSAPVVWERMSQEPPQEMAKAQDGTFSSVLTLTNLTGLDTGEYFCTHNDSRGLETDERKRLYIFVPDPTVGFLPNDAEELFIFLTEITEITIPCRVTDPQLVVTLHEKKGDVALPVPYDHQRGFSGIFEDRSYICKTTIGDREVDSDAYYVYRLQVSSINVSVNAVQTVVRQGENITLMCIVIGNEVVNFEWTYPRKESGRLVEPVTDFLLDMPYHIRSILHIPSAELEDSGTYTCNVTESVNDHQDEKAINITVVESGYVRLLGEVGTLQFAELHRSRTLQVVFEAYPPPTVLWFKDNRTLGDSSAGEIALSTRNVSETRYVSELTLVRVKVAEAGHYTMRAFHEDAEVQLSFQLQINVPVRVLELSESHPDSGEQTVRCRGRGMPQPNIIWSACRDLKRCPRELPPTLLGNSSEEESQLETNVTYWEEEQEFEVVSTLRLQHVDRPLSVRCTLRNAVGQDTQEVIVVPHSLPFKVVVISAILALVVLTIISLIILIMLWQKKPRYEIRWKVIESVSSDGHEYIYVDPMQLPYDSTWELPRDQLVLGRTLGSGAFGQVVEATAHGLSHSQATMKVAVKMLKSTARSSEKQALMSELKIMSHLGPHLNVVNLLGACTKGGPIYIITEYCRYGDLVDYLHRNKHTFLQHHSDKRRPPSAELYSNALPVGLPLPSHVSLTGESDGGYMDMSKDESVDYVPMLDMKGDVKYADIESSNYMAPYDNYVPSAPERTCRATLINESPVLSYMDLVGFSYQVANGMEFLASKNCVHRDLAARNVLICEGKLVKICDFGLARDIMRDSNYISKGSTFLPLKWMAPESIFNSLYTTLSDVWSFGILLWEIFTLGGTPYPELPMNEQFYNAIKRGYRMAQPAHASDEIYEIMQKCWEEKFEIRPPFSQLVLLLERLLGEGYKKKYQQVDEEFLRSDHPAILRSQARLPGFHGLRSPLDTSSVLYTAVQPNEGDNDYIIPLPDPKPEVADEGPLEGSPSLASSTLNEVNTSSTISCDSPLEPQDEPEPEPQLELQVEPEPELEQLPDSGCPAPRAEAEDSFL
Take `O=C(Nc1ccc(Oc2ccccc2)cc1)N1CCN(c2ncnc3cc(F)c(F)cc23)CC1`: the IC50 was 970 nM. As for `O=C(Nc1ccc(Oc2ccccc2)cc1)N1CCN(c2ncnc3cc([N+](=O)[O-])ccc23)CC1`, the figure is 2880 nM. As for `O=[N+]([O-])c1cc2c(N3CCN(C(=S)NCc4ccccc4)CC3)ncnc2cc1Cl`, the figure is greater than 30000 nM; as for `S=C(NCc1ccccc1)N1CCN(c2ncnc3cc(Cl)ccc23)CC1`, 5160 nM; as for `COC(=O)c1ccc2c(N3CCN(C(=O)Nc4ccc(Oc5ccccc5)cc4)CC3)ncnc2c1`, greater than 750 nM. Then `CC(C)Oc1ccc2c(N3CCN(C(=O)Nc4ccc(Oc5ccccc5)cc4)CC3)ncnc2c1`, with 1120 nM. As for `O=C(O)c1ccc2c(N3CCN(C(=O)Nc4ccc(Oc5ccccc5)cc4)CC3)ncnc2c1`, the IC50 was greater than 30000 nM.

`Nc1cc2c(N3CCN(C(=S)NCc4ccccc4)CC3)ncnc2cc1Cl` yielded a half-maximal inhibitory concentration (IC50) of 160 nM. As for `CC(=O)Nc1cc2c(N3CCN(/C(S)=N\Cc4ccccc4)CC3)ncnc2cc1Cl`, the figure is greater than 1000 nM; as for `Cc1cccc2ncnc(N3CCN(C(=O)Nc4ccc(Oc5ccccc5)cc4)CC3)c12`, 6250 nM. Then `Nc1cc2ncnc(N3CCN(C(=O)Nc4ccc(Oc5ccccc5)cc4)CC3)c2cc1[N+](=O)[O-]`, with 1160 nM; and `O=C(Nc1ccc(Oc2ccccc2)cc1)N1CCN(c2ncnc3ccc(Br)cc23)CC1`, with 1380 nM. Then `O=C(Nc1ccc(Oc2ccccc2)cc1)N1CCN(c2ncnc3ccc(I)cc23)CC1`, with 5170 nM; and `COc1cccc2c(N3CCN(C(=O)Nc4ccc(Oc5ccccc5)cc4)CC3)ncnc12`, with 10700 nM; and `Cc1ccc2c(N3CCN(C(=O)Nc4ccc(Oc5ccccc5)cc4)CC3)ncnc2c1`, with greater than 100 nM. `Cc1ccc2ncnc(N3CCN(C(=O)Nc4ccc(Oc5ccccc5)cc4)CC3)c2c1` displayed an IC50 of 540 nM. Then `O=C(Nc1ccc(Oc2ccccc2)cc1)N1CCN(c2ncnc3ccc(F)cc23)CC1`, with 350 nM.

Molecule `O=C(Nc1ccc(Oc2ccccc2)cc1)N1CCN(c2ncnc3cc(Cl)c([N+](=O)[O-])cc23)CC1` had an IC50 of 1320 nM. As for `O=C(Nc1ccc(Oc2ccccc2)cc1)N1CCN(c2ncnc3ccc([N+](=O)[O-])cc23)CC1`, the figure is 29700 nM.

The IC50 is the point on the concentration scale where inhibition reaches its midpoint.
